Laboratory results reported in patent US20210253705A1, “METHODS AND AGENTS FOR TREATING ORGAN INJURY AND TRANSPLANT REJECTION” (The Regents of the University of California, priority 2020, published 2021).

Test system: BALB/c airway allografts in C57BL/6 recipients
Experiment: Heterotopic subcutaneous tracheal/airway transplantation model of allograft rejection
Type: in vivo, mice
Details: recipients treated with CCR4 inhibitor, day 14
Method: Each mouse was subcutaneously transplanted with two tracheas. Small molecule CCR4 inhibitor or antagonist C 021 dihydrochloride (Cat #3581, Tocris Bio-Techne, Minneapolis, Minn., USA) was resuspended in sterile DMSO to 100 mg/ml and diluted further in 1×PBS to be administered as intraperitoneal (i.p.) injections at 50 mg/kg daily starting at day −1 prior to tracheal transplantation until day 14 when allografts were harvested for rejection analysis.
Histopathological Evaluation of Airway and Lung Transplants. Airway and lung graft tissues were fixed overnight in 4% paraformaldehyde, processed, paraffin-embedded, sectioned and stained with hematoxylin and eosin (H&E) or Elastin Trichrome. Three independent blinded reviewers calculated the degree of airway injury using a histological scoring system. All qualitative histological changes were evaluated and the total murine rejection score was calculated based on four pathological criteria: (a) airway lining epithelial loss, (b) deposition of extracellular matrix (ECM), (c) leukocyte infiltration, and (d) luminal fibro-obliteration due to granulation tissue formation and/or fibrosis. Each process was scored on a scale of 0-4 (0=normal, 1=mild, 2=moderate, 3=severe and 4=very severe) and added together for a total rejection score. […] Images were taken by Zeiss Axioskop 2 plus microscope and analyzed with AxioVision 4.2 imaging software. […]

**Q.** Which “H&E histology of airway allografts” value does the source give for COc1cc2nc(N3CCC(N4CCCCC4)CC3)nc(NC3CCCCCC3)c2cc1OC.Cl.Cl [C 021 dihydrochloride, 2-[1,4′-bipiperidin]-1′-yl-N-cycloheptyl-6,7-dimethoxy-4-quinazolinamine dihydrochloride] here?
**A.** virtually normal epithelium and minimal matrix deposition without fibro-obliteration
